Data on six molecules can be found in patent publication US20100190733A1, “Methods of Treating Muscular Dystrophies” (Primus Pharmaceuticals, Inc., priority 2009, published 2010).

Series [1] relates to mdx mice. To be noted: previous studies (Ref. 36-37); cited from earlier work.
Series [2] has as its system muscle regeneration after traumatic injury. To be noted: systemic administration (Ref. 21); cited from earlier work.
Series [3] concerns WT and mdx mice. Kind of series: Forelimb strength and fatigue by grip meter, Example 1. To be noted: flavocoxid 5 mg/kg, methylprednisolone 0.75 mg/Kg. Format: in vivo. As for the experimental part:
(§1) Five-week old mdx and WT mice were treated for 5 weeks with daily 100 μl intraperitoneal injections with either flavocoxid (a mixture of catechin and baicalin) (n=8, 5 mg/kg), methylprednisolone (n=8, 0.75 mg/Kg) or vehicle (n=8, 33% (v/v) dimethylsulphoxide (DMSO) in 0.9% NaCl). At the end of the experiments, animals were anaesthetized with intraperitoneal administration of sodium penthobarbital (80 mg/kg). Blood was then collected by intracardiac puncture and used to analyze creatine kinase (CK) levels. The biceps, quadriceps and extensor digitorum longus (EDL) muscles were removed bilaterally and immediately frozen in liquid nitrogen-cooled isopentane and stored at −80° C. for histological and biochemical evaluations.
(§2) Mice were weighed and examined for forelimb strength at baseline and after 5 weeks of treatment. Strength testing consisted of five separate measurements using a grip meter attached to a force transducer that measures peak force generated (Stoelting Co, Wooddale Ill., USA). Briefly, the mouse grabed the trapeze bar as it was pulled backward and the peak pull force in grams was recorded on a display upon release by the animal. The three highest measurements for each animal were averaged to give the strength score. The degree of fatigue was calculated by comparing the first two pulls to the last two pulls. The decrement between pulls 1+2 and pulls 4+5 gave the measure of fatigue.

The next series is described as follows: Body weight, Example 1. Format: in vivo. To be noted: WT mice, after 5 weeks daily i.p. treatment, compared to WT mice treated with vehicle. As for the experimental part:
as §1
as §2, with “The decrement between pulls 1+2 and pulls 4+5 gave the measure of fatigue.” left out

For series [4], the system named is WT and mdx mice. The series can be described thus: Serum creatine kinase (CK) evaluation, Example 1. In kind it is in vivo. To be noted: after 5 weeks daily i.p. treatment, mean±SD. As for the experimental part: as §1
Blood samples were centrifuged at 6,000 RPM and the serum stored at −80° C. until the day of analysis. Serum CK was evaluated at 37° C. using a commercially available kit (Randox Laboratories LTD, Crumlin, Co. Antrim U.K). The results were expressed as U/L.

Series [5] concerns mdx mice. Kind of series: Forelimb strength and fatigue by grip meter, Example 2. In kind it is in vivo. The note with it: genistein 2 mg/kg/ip daily for 5 weeks vs vehicle. Here is the method: (§3) Mdx animals were purchased from Charles River Italy (Calco, Milan, Italy). Animals were 4 weeks old on arrival and were acclimatized for 5 days before the study. At the beginning of the experiment the mice, which were at that point 5 weeks old, weighted about 20-22 grams. The mice were treated daily for 5 weeks with either the phytoestrogen genistein (Sigma, Mo., USA) at a dose of 2 mg/kg/ip or its vehicle (1:3 DMSO: 0.9% NaCl solution).
(§4) Mice were weighed and examined for forelimb strength at baseline and at the end of the experiment. Strength testing consisted of five separate measurements using a grip meter attached to a force transducer that measures the peak force generated (Stoelting Co., Wooddale Ill., USA). Specifically, the mouse grabbed the trapeze bar as it is pulled backward and the peak pull force in grams is recorded on a display. The three highest measurements for each animal were averaged to give the strength score.
The degree of fatigue was calculated by comparing the first two pulls to the last two pulls. The decrease between pulls 1+2 and pulls 4+5 provided the measure of fatigue.

A further series relates to NF-κB. The series can be described thus: NF-κB activation (EMSA) in skeletal muscle, Example 2. In kind it is in vivo. To be noted: mdx mice skeletal muscle, genistein 2 mg/kg/ip daily for 5 weeks vs vehicle. Here is the method: as §3
Isolation of nuclear proteins in approximately 50 mg of frozen skeletal muscle tissue was performed according to recently detailed method (See ref 15 below). Twenty micrograms of nuclear extract were incubated for 30 min at room temperature with 50 fmol of biotin-end-labeled 45-mer double-strand NF-κB oligonucleotide from the HIV long terminal repeat, 5-[…] GGCGTGGG-3 containing 2(underlined) NF-κB binding sites. Both complimentary oligos were end-labeled separately and then annealed prior to use. […] The results were expressed as relative integrated intensity compared with normal controls, considering exposure time, background levels and known protein concentration of an Epstein Barr virus nuclear antigen-1 extract, which was used as EMSA control.
In general terms: A gel shift assay detects complexes by their altered migration in electrophoresis.

The test system of series [6] is mdx mice. Kind of series: Immunohistochemistry of biceps (myogenin, dMHC), Example 2. Format: in vivo. The note with it: genistein 2 mg/kg/ip daily for 5 weeks vs vehicle.
The test system of series [7] is mdx mice. Kind of series: Serum creatine kinase (CK) evaluation, Example 2. In kind it is in vivo. To be noted: genistein 2 mg/kg/ip daily for 5 weeks vs vehicle. Here is the method:
as §3
Blood samples were centrifuged at 6000 g and the serum was stored at −80° C. until the day of analysis. Serum CK was evaluated at 37° C. using a commercially available kit (Randox Laboratories LTD, Antrim, UK). The results are expressed as U/L.

A further series is described as follows: Body weight, Example 2. Format: in vivo. To be noted: mdx mice, genistein 2 mg/kg/ip daily for 5 weeks vs vehicle. Here is the method:
as §3, §4

Series [8] concerns mdx mice. Kind of series: Histological studies of biceps muscle, Example 2. The note with it: genistein 2 mg/kg/ip daily for 5 weeks vs vehicle. Format: in vivo. As for the experimental part: as §3
Transverse cryostat sections 10 μm thick were obtained from the midpoint of the biceps and TA muscle body. The whole muscle cross sections (corresponding to a mean area of 2.10 mm^2 in biceps and 2.25 mm^2 in TA) were stained with hematoxylin-eosin and were examined by a blinded observer using the AxioVision 2.05 image analysis system equipped with an Axiocam camera scanner (Zeiss, Munchen, Germany). The following four areas with patchy distribution were recognized: 1) normal fibers identified by the presence of peripheral nuclei; 2) necrotic fibers identified by pale cytoplasm and phagocytosis; 3) regenerating fibers identified by small size, central nuclei with/without basophilic cytoplasm; 4) centrally nucleated fibers identified by normal size but with central nuclei. The area occupied by normal fibers, necrotic fibers, regenerating fibers, or centrally nucleated fibers was expressed as a percentage of the area of the whole muscle cross section.

Series [9] deals with Extensor digitorum longus muscles (EDL) of mdx mice. Kind of series: Electrophysiological studies of isolated EDL muscle, Example 2. To be noted: genistein 2 mg/kg/ip daily for 5 weeks vs vehicle. In kind it is in vivo. As for the experimental part:
as §3
Extensor digitorum longus muscles (EDL) were vertically mounted in a temperature controlled (30°) chamber containing Krebs Ringer bicarbonate buffer (Sigma k4002) and continuously gassed with a mixture of 95% O2 and 5% CO2. One end of the muscle was linked to a fixed clamp while the other end was connected to the lever-arm of an Aurora Scientific Instruments 300B actuator/transducer system using a nylon wire. […] For each experiment, the initial muscle length was adjusted to the length (L0) which produced the highest twitch force. The optimal fiber length (Lf) was determined by multiplying the value of L0 for the fiber length by the muscle length ratio (0.44 for the EDL and 0.71 for soleus). The muscle cross-sectional area (CSA) was determined for the EDL and soleus by dividing the muscle mass (m) by the product of the Lf and the density of mammalian skeletal muscle (1.06 mg/mm^3).
In order to measure force generation, the muscle was initially stimulated with two 0.5 ms single pulses (with a rest time of 150 s) to measure twitch force, twitch force/cross sectional area (CSA), and contraction time (the time that the isolated muscle needs to reach the peak force after delivery of a single electrical pulse).
In order to measure high-stress eccentric contractions, the muscle was stimulated with five tetanic stimulations (train of 0.1 ms pulses delivered at 180 Hz, for 0.6 s) to evaluate the maximum isometric force (and maximum force/cross sectional area (CSA)) and the decline in maximal isometric force. The latter was measured by dividing the force value at the last stimulation (F5) by the force value at the first stimulation (F1), and used as a index of myofiber injury caused by high-stress contractions.

In series [10] the test system is mdx mice. The note with it: previous studies (Ref. 38 and 39); cited from earlier work.
Where [11] appears, read: end of 5 weeks daily i.p. treatment.

`CC(=O)SCCC1Cc2c(C)c(OC(=O)CCC(=O)O)c(C)c(C)c2O1` (racemic) [IRFI-042, (±)-5-emisuccinoyl-2-[2-(acetylthio)ethyl]-2,3-dihydro-4,6,7-trimethylbenzofuran]: the “effects on functional, biochemical and morphological parameters of mdx mice muscle fibers” value with mdx mice [1] is listed as “beneficial effects”.

For `COc1cc(/C=C/C(=O)CC(=O)/C=C/c2ccc(O)c(OC)c2)ccc1O` [curcumin], the “muscle regeneration after traumatic injury” value in series [2] is listed as “stimulates muscle regeneration”.

On to `C[C@H]1C[C@@H]2[C@H]([C@@H](O)C[C@@]3(C)[C@H]2CC[C@]3(O)C(=O)CO)[C@@]2(C)C=CC(=O)C=C12` [methylprednisolone], for which the “fatigue levels compared to vehicle-treated mdx” value in the series on WT and mdx mice [3] (after 5 weeks daily i.p. treatment) was −13%. The “forelimb strength compared to vehicle-treated mdx mice” value in the series on WT and mdx mice [3] (setting [11]) was “+30%”. In addition, the “strength normalized to weight compared to vehicle-treated mdx mice” value in the series on WT and mdx mice [3] (setting [11]) is on record as “+27%”. For the same molecule, in “Body weight, Example 1”, the body weight result is recorded as “increase in body weight”. Also, the “serum CK levels” value in the series on WT and mdx mice [4] (WT mice) turned out to be 365±28 U/L; in the series with WT and mdx mice [4] (mdx mice) it was 1737±103 U/L.

On to `O=c1c(-c2ccc(O)cc2)coc2cc(O)cc(O)c12` [genistein, 5,7-Dihydroxy-3-(4-hydroxyphenyl)chromen-4-one], for which, in the series on mdx mice [5], the forelimb strength result is reported as “significantly augmented”, the level of fatigue result is “slightly lower” and the “strength normalized to weight” value is on record as “higher”. Also, in the series with NF-κB, the NF-κB activation entry was “significantly decreased”. In the series on mdx mice [6], the “myogenin expression in the nuclei of muscles” value is reported as “significantly increased”, the “number of dMHC positive fibers” value is reported as “not found to modify” and the “number of myogenin positive satellite cells (SC)” value is recorded as “not found to modify”. The CK levels result in the series on mdx mice [7] is “statistically significant reduction”. Besides, in the series “Body weight, Example 2”, the body weight entry was “not significantly different”. In addition, in the series with mdx mice [8], the “necrosis in the biceps” value is “decreased”, the “percentage of centrally nucleated fibers in the biceps” value is recorded as “not found to modify”, the “percentage of normal muscular area in the biceps” value is “not found to modify” and the “percentage of regenerating fibers in the biceps” value was “increased”. In series [9], the contraction time result is on record as “not found to modify”, the “decline of maximal isometric force (F5/F1 after five tetanic stimulations)” value was “reduced”, the “maximum force/CSA” value is “not found to modify” and the “twice force/CSA” value is given as “not found to modify”. The twitch force result in [9] is listed as “not found to modify”.

As to `O=C(O[C@@H]1Cc2c(O)cc(O)cc2O[C@@H]1c1cc(O)c(O)c(O)c1)c1cc(O)c(O)c(O)c1` [epigallocatechin gallate], the “effect on mdx mice” value in the series on mdx mice [10] is on record as “beneficial effect”.

With `S=C(S)N1CCCC1` [pyrrolidine dithiocarbamate], the “effects on functional, biochemical and morphological parameters of mdx mice muscle fibers” value with mdx mice [1] is on record as “beneficial effects”.
